Publication PMC4942689, “Deciphering the function of the CNGB1b subunit in olfactory CNG channels” (Scientific Reports, 2016)

Target: T1, CNGA2:A4:B1b channels (Rattus norvegicus, UniProt A0A8I5ZN27+Q00195+Q64359)
T1 construct: expressed in transfected cells; host or cells: Xenopus laevis oocytes (cRNA injection 2:1:1), excised inside-out patches
Assay: Concentration-activation relationship, inside-out patch-clamp
Assay type: biochemical
Conditions: CNGA2:A4:B1b
Description: Patch-clamp experiments were performed using an Axopatch 200B amplifier (Molecular Devices LLC, CA, U.S.A.) in the inside-out configuration. The patch pipettes for recording of macroscopic currents were pulled from borosilicate glass tubing (outer diameter 2.0 mm, inner diameter 1.0 mm; Hilgenberg GmbH, Germany). The initial resistance was 0.7–1.3 MΩ. The patches were formed as pushed inside-out patches. […] Cyclic nucleotide concentration jumps were performed using a double-barreled glass pipette mounted on a piezo-driven device. Intracellular (bath) and extracellular (pipette) solutions contained (mM) 150 KCl, 1 EGTA, 5 Hepes, pH = 7.4 with KOH. […] Currents in the absence of the cyclic nucleotide were subtracted. All patches included in this study were first tested for channel expression in the presence of a saturating ligand concentration. Only patches with large current, i.e. a large number of channels, were included in our statistics. The currents were measured at +10 mV or, if mentioned, at +100 mV.
Fits of equations to data points were performed with the 8.1G® software (OriginLab Corporation, Northampton, U.S.A.). Concentration-activation relationships were obtained by relating the actual current amplitude, I, to the maximum current amplitude elicited by a saturating concentration of ligand, Imax, and plotting this ratio as function of the ligand concentration, x. The concentration-activation data were fitted using the Hill equation
where EC50 is the ligand concentration of half maximum effect and H the Hill coefficient.
In fHcAMP the dye DY547 is coupled to
(b) Concentration-activation relationships of the CNGA2:A4:B1b channels activated by either
The currents were recorded […]

T1 sequence (Q00195 whole entry): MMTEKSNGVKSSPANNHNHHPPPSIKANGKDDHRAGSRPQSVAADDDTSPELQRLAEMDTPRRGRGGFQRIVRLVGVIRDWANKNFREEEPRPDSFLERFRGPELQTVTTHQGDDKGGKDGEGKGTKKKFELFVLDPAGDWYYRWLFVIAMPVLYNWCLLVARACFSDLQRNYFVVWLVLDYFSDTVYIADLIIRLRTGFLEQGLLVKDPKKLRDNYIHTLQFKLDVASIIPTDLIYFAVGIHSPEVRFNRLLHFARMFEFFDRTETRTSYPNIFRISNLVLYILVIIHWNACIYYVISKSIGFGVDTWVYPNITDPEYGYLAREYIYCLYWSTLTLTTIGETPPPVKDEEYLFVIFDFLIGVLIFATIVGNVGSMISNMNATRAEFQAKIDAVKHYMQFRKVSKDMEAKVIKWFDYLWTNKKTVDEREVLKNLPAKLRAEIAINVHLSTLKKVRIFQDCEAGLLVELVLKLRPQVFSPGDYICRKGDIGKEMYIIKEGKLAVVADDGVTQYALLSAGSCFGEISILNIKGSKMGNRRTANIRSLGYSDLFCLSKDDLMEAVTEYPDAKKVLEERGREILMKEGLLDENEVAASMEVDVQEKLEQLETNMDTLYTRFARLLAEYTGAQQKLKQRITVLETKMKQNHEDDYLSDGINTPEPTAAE
T1 sequence (Q64359 whole entry): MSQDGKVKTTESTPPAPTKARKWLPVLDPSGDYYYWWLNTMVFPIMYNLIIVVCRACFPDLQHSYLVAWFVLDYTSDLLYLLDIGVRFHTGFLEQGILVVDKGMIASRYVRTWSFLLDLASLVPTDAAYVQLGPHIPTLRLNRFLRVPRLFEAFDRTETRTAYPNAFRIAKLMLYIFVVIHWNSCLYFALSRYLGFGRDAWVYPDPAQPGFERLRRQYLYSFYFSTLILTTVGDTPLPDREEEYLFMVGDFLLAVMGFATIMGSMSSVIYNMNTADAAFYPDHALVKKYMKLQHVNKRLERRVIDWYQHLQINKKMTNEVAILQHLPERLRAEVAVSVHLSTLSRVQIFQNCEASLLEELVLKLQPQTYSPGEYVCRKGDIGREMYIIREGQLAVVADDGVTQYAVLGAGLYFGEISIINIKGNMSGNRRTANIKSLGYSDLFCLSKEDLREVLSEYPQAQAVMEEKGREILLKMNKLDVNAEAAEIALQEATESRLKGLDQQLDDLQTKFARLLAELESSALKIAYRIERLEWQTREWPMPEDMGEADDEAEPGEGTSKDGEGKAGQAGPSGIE
T1 sequence (A0A8I5ZN27 1-858 isoform A0A8I5ZN27-2): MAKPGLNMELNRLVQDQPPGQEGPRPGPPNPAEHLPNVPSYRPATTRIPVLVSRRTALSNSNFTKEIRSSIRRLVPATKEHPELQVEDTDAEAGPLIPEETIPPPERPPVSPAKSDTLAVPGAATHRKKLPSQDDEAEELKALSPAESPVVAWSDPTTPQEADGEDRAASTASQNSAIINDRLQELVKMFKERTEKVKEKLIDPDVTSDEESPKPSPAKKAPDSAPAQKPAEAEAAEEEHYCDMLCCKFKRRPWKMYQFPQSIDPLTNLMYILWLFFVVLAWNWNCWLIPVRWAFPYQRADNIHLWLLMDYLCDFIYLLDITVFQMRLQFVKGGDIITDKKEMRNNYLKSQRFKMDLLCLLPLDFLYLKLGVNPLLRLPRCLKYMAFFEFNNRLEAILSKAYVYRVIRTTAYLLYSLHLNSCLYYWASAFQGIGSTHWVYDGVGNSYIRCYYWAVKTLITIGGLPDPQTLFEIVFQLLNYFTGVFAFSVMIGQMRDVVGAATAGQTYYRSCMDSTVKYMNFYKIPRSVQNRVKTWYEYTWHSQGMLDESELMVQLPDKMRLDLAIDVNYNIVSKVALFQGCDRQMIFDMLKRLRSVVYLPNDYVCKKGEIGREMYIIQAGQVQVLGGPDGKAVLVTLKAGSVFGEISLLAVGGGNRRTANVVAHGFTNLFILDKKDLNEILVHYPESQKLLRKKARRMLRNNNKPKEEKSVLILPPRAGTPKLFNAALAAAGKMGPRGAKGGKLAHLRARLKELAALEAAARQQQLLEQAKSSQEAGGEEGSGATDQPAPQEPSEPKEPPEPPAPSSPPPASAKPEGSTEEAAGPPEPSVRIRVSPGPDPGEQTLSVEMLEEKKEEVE

## Nc1nc2c(ncn2[C@@H]2O[C@@H]3COP(=O)(O)O[C@H]3[C@H]2O)c(=O)[nH]1 [cGMP]
Equation 1
  EC50: 760 nM
Hill coefficient
  H: 2.0
